From patent publication US20230287021A1, “COMPOUNDS, COMPOSITIONS AND METHODS FOR STABILIZING TRANSTHYRETIN AND INHIBITING TRANSTHYRETIN MISFOLDING” (Protego Biopharma, Inc., priority 2020, published 2023)
Where a name gives a salt, the structure may show the parent alone.

Columns and labels:
[1] = In vivo rat PK: tafamidis in plasma, CSF and brain; set-up: species or system Male Sprague-Dawley (SD) rats; details: for Tafamidis CSF/Plasma Ratio (iv): iv administration of test compound; for Tafamidis CSF/Plasma Ratio over 24 hrs (po): po administration of test compound
Text: For a compound provided herein to be an effective TTR stabilizer drug to halt and/or prevent the ocular and cerebral TTR amyloid deposition TTR amyloidosis, it has to be able to penetrate into the brain and CSF (surrogate for eye penetration) and deliver a sufficient amount of TTR stabilizer to stop TTR dissociation. A pharmacokinetic study in rat was used to evaluate the compounds. Male Sprague-Dawley (SD) rats (200-220 g weight) were acclimated for at least 2 to 3 days before being placed on study. All animals had access to certified rodent diet and water at libitum. Appropriate amount of the test compound was accurately weighed and mixed with appropriate volume of vehicle (such as DMSO/sterile water for iv dosing or 0.5% methylcellulose homogenous suspension or solution for oral administration or as a solution in a mixture NMP/PEG400/solutol/water) to administer a dose of 2, 5 or 10 mg/kg. For IV dosing the test compound was administered via tail vein or indwelling cannula. For oral dosing, the test compound was administered by oral gavage. Blood and CSF samples were collected at selected timepoints. Blood collection was performed from saphenous vein or tail vein of each animal into polypropylene tubes at each timepoint. All blood samples were transferred into EDTA-K2 tubes and centrifuged for 15 minutes at 4° C. for plasma collection. Plasma samples were kept at -80° C. until LC/MSMS analysis. CSF was collected from cisterna magna at each timepoint and quick frozen over dry ice and kept at -80° C. until LC/MSMS analysis. Brains were harvested immediately after the terminal bleeding (~ 24 hrs post dosing). The blood of the brain was perfused with normal saline. The brain was quickly picked and placed into centrifuge tube. The weight of brain samples was recorded. 4-Fold homogenization solution (MeOH/15 mM PBS (1:2)) was added into the tube according to the weighed samples. The brain was homogenized using a Polytron (3 strokes or more until homogenous, each 30 seconds) on wet ice. The samples were quick frozen over dry ice and kept at -80° C. until LC/MSMS analysis. Using a LC-MSMS method for the quantitative determination of test compound in biological matrixes, amount of test compound and active agent were measured in plasma and CSF at selected timepoints post-dosing and in brain at 24 hrs post dosing. Plasma concentration versus time data was analyzed by non-compartmental approaches using the Phoenix WinNonlin 6.3 software program. As reference, an oral dose of 2 mg/kg of tafamidis gave a CSF to plasma ratio over 24 hrs around 0.01 and a brain to plasma ratio at 24 hrs around 0.02.

[2] = In vitro rat plasma stability assay, formation of tafamidis; type: in vitro ADME; details: 37° C., 2 µM test compound
Method in brief: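 Compound at 2 µM incubated in rat plasma at 37 °C, sampled at 0, 10, 30, 60, 120 min or 0, 60, 120, 180, 240 min. Protein precipitated, supernatant analyzed by LC-MS/MS, and percentage formation of tafamidis calculated per time point.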

[3] = In vitro rat liver S9 stability assay, formation of tafamidis; type: in vitro ADME; details: rat liver S9, 37° C., 1 µM test compound
Protocol: The test compound was added to liver S9 and incubated at 37° C. in a water bath at a concentration of 1 µM. At each time point (0, 5, 10, 20, 30 and 60 min), stop solution (tolbutamide plus labetalol) was added to precipitate protein and mixed thoroughly. After centrifugation, an aliquot of supernatant was analyzed by LC-MS/MS. The percentage of formation of active agent was calculated at each time point.

SMILES	Tafamidis CSF/Plasma Ratio (iv) [1]	Tafamidis CSF/Plasma Ratio over 24 hrs (po) [1]	Formation of tafamidis at 120 min [2]	Formation of tafamidis at 60 min [3]
CC(CN(C)C)OC(=O)c1ccc2nc(-c3cc(Cl)cc(Cl)c3)oc2c1 (single isomer, unassigned) [Compound 46, (S*)-1-(dimethylamino)propan-2-yl 2-(3,5-dichlorophenyl)benzo[d]oxazole-6-carboxylate]	C (C is ≥0.02)	A (A is < 0.015)	B (B is ≥25 to <50%)	A (A is <25%)
CN1CCC(OC(=O)c2ccc3nc(-c4cc(Cl)cc(Cl)c4)oc3c2)CC1 [Compound 11]	B (B is ≥0.015 to <0.02)	A (A is < 0.015)	A (A is <25%)	A (A is <25%)
O=C(OC1CCN(Cc2ccccc2)C1)c1ccc2nc(-c3cc(Cl)cc(Cl)c3)oc2c1 (stereo not drawn) [Compound 76]		B (B is ≥0.015 to <0.02)	C (C is ≥50 to <75%)	A (A is <25%)
O=C(OCC1CCOC1)c1ccc2nc(-c3cc(Cl)cc(Cl)c3)oc2c1 (stereo not drawn) [Compound 85]		B (B is ≥0.015 to <0.02)	C (C is ≥50 to <75%)	C (C is ≥50 to <75%)
CNC(=O)c1ccc2nc(-c3cc(Cl)cc(Cl)c3)oc2c1 [Compound 87]		A (A is < 0.015)	A (A is <25%)	A (A is <25%)
O=C(OC1CCNCC1)c1ccc2nc(-c3cc(Cl)cc(Cl)c3)oc2c1 [Compound 13, hydrochloride]	B (B is ≥0.015 to <0.02)	B (B is ≥0.015 to <0.02)	A (A is <25%)	A (A is <25%)
CN(C)CCCOC(=O)c1ccc2nc(-c3cc(Cl)cc(Cl)c3)oc2c1 [Compound 1, 3-(Dimethylamino)propyl 2-(3,5-dichlorophenyl)benzo[d]oxazole-6-carboxylate]	B (B is ≥0.015 to <0.02)		A (A is <25%)	A (A is <25%)
O=C(OCCCN1CCCC1)c1ccc2nc(-c3cc(Cl)cc(Cl)c3)oc2c1 [Compound 40, 3-(pyrrolidin-1-yl)propyl 2-(3,5-dichlorophenyl)benzo[d] oxazole-6-carboxylate]	B (B is ≥0.015 to <0.02)		B (B is ≥25 to <50%)	A (A is <25%)
CN1CCC(OC(=O)c2ccc3nc(-c4cc(Cl)cc(Cl)c4)oc3c2)C1 (stereo not drawn) [Compound 7, 1-methylpyrrolidin-3-yl 2-(3,5-dichlorophenyl)benzo[d]oxazole-6-carboxylate]	C (C is ≥0.02)	C (C is ≥0.02)	D (D is ≥75%)	A (A is <25%)
O=C(OC1CCCN(CC(F)F)C1)c1ccc2nc(-c3cc(Cl)cc(Cl)c3)oc2c1 (stereo not drawn) [Compound 167, 1-(2,2-difluoroethyl)piperidin-3-yl 2-(3,5-dichlorophenyl)benzo[d]oxazole-6-carboxylate]		A (A is < 0.015)	C (C is ≥50 to <75%)	C (C is ≥50 to <75%)
O=C(OCc1ncccn1)c1ccc2nc(-c3cc(Cl)cc(Cl)c3)oc2c1 [Compound 102]		A (A is < 0.015)	B (B is ≥25 to <50%)	C (C is ≥50 to <75%)
CN1CCCC(OC(=O)c2ccc3nc(-c4cc(Cl)cc(Cl)c4)oc3c2)C1 (stereo not drawn) [Compound 62]		A (A is < 0.015)	B (B is ≥25 to <50%)	B (B is ≥25 to <50%)
O=C(OC1CCN(CC(F)F)C1)c1ccc2nc(-c3cc(Cl)cc(Cl)c3)oc2c1 (stereo not drawn) [Compound 144]		B (B is ≥0.015 to <0.02)	B (B is ≥25 to <50%)	C (C is ≥50 to <75%)
CS(=O)(=O)N1CCC(OC(=O)c2ccc3nc(-c4cc(Cl)cc(Cl)c4)oc3c2)C1 (stereo not drawn) [Compound 139]		A (A is < 0.015)	A (A is <25%)	B (B is ≥25 to <50%)
O=C(c1ccc2nc(-c3cc(Cl)cc(Cl)c3)oc2c1)N1CCNCC1 [Compound 145]		B (B is ≥0.015 to <0.02)	A (A is <25%)	A (A is <25%)
CC(Cn1ccnc1)OC(=O)c1ccc2nc(-c3cc(Cl)cc(Cl)c3)oc2c1 (stereo not drawn) [Compound 170]		A (A is < 0.015)	B (B is ≥25 to <50%)	B (B is ≥25 to <50%)
CN1C[C@H](OC(=O)c2ccc3nc(-c4cc(Cl)cc(Cl)c4)oc3c2)[C@@H](O)C1 [Compound 57, (3S,4S)-4-hydroxy-1-methylpyrrolidin-3-yl 2-(3,5-dichlorophenyl)benzo[d] oxazole-6-carboxylate]	B (B is ≥0.015 to <0.02)		B (B is ≥25 to <50%)	B (B is ≥25 to <50%)
CN1CC[C@H](OC(=O)c2ccc3nc(-c4cc(Cl)cc(Cl)c4)oc3c2)C1 [Compound 58, (S)-1-methylpyrrolidin-3-yl 2-(3,5-dichlorophenyl)benzo[d] oxazole-6-carboxylate hydrochloride]		A (A is < 0.015)	D (D is ≥75%)	A (A is <25%)
O=C(OCCCN1CCC1)c1ccc2nc(-c3cc(Cl)cc(Cl)c3)oc2c1 [Compound 39, 3-(azetidin-1-yl)propyl 2-(3,5-dichlorophenyl)benzo[d] oxazole-6-carboxylate]	B (B is ≥0.015 to <0.02)		A (A is <25%)	A (A is <25%)
O=C(NCCF)c1ccc2nc(-c3cc(Cl)cc(Cl)c3)oc2c1 [Compound 88]		A (A is < 0.015)	A (A is <25%)	A (A is <25%)
O=C(OCCN1CCCC1)c1ccc2nc(-c3cc(Cl)cc(Cl)c3)oc2c1 [Compound 37, 2-(pyrrolidin-1-yl)ethyl 2-(3,5-dichlorophenyl)benzo[d]oxazole-6-carboxylate]	A (A is <0.015)		B (B is ≥25 to <50%)	B (B is ≥25 to <50%)
CCN(C)CCCOC(=O)c1ccc2nc(-c3cc(Cl)cc(Cl)c3)oc2c1 [Compound 48, 3-(ethyl(methyl)amino)propyl 2-(3,5-dichlorophenyl)benzo[d] oxazole-6-carboxylate hydrochloride]	A (A is <0.015)		B (B is ≥25 to <50%)	
